≈ marks a conversion by molar mass, not a printed value. Marks after values point to notes of the source that are not given here.
Tests used:
[1] = tested on: Enterococcus faecalis EF19433; assay: MBC, spot plating after 24 h in MH broth; conditions: Table 18; —: no activity observed
Protocol: (§5) To determine MBC compound concentrations breakpoints were estimated from MIC curves. Overnight cultures were set up as described above for all bacterial strains. The following day overnight cultures were adjusted to give a cell density of 5×10^5 cells per mL. Briefly, cultures were adjusted to the McFarland standard (0.08-0.12) and diluted (1:150). Adjusted cultures were inoculated into 96 well plates with 50 μL sterile Muller-Hinton broth (MHB) and 2 concentrations of each compound. […] MBC cultures were quantified by serial dilution in a 96 well plate and spot plating onto Muller-Hinton agar (MHA). MHA plates were incubated at 37° C. for 24 h and counted. Results are presented as CFU per mL.
(§6) To determine MBC compound concentrations, breakpoints were estimated from MIC curves. Overnight cultures were set up as described above for all bacterial strains. The following day overnight cultures were adjusted to give a cell density of 5×10^5 cells per mL. Briefly, cultures were adjusted to the McFarland standard (0.08-0.12) and diluted (1:150). Adjusted cultures were inoculated into 96 well plates with 50 μL sterile Muller-Hinton broth (MHB) and 2 concentrations of each compound. […] MBC cultures were quantified by serial dilution in a 96 well plate and spot plating onto Muller-Hinton agar (MHA). MHA plates were incubated at 37° C. for 24 hours and counted.
(§7) These compounds were tested for their MBC against a panel of ATCC and nosocomial bacteria.

Escherichia coli EC25922 [2] = assay: MBC, spot plating after 24 h in MH broth; conditions: Table 18; —: no activity observed
Protocol: as §5, §6, §7

[3] = tested on: Enterococcus faecalis EF51299; assay: MIC, broth microdilution in MH broth with resazurin; format: cell-based; conditions: for MIC EF51299: Table 17, modified Gompertz fit, only values marked ^ are reliable estimates, others unreliable
[4] = tested on: Enterococcus faecalis EF19433; assay: as above; format: cell-based; conditions: for MIC EF19433: Table 17, modified Gompertz fit, only values marked ^ are reliable estimates, others unreliable
[5] = tested on: Staphylococcus aureus MR1; assay: MBC, spot plating after 24 h in MH broth; conditions: Table 18; —: no activity observed
Protocol: as §5, §6, §7

Escherichia coli EC25922 [6] = assay: MIC, broth microdilution in MH broth with resazurin; format: cell-based; conditions: Table 17; modified Gompertz fit; only values marked ^ are reliable estimates, others unreliable
[7] = tested on: Human Keratinocyte (HaCaT) cells; assay: LDH cytotoxicity assay, HaCaT; format: cell-based; conditions: Table 16, summarized cell toxicity values
Protocol: (§1) Primary Human Dermal Fibroblast (HDFs) and Human Keratinocyte (HaCaT) cells were selected for cytotoxicity and proliferation testing. HDFs were cultured in high glucose, no glutamine, no phenol red, Dulbecco's Modified Eagle Medium (DMEM) (GIBCO™). HDF media was further supplemented with 10% heat-inactivated fetal bovine serum (GIBCO™), 1% L-glutamine (GIBCO™) and 1% Penicillin-streptomycin (GIBCO™). HaCaTs cells were cultured in high glucose, no glutamine, no calcium DMEM (GIBCO™) supplemented with 10% heat inactivated foetal bovine serum, 1% L-glutamine, 1% Penicillin-streptomycin 1 mM calcium chloride (Sigma) throughout.
(§2) Mammalian cell populations were maintained in standard culture conditions at 37° C., 5% CO2 and >95% relative humidity. Upon reaching 80% total confluency, cells were removed from the incubator, the culture media aspirated, and the monolayer washed with Dulbecco's […] (DPBS). After washing, 10 mL of 1% trypsin (GIBCO™) was added to the flask and incubated to facilitate the detachment of cells from the culture vessel. Following dissociation, 10 mL of culture media was then added to each flask to neutralize the trypsin enzyme activity. The total 20-mL flask volume was transferred into a universal tube and centrifuged at 400 rcf for 5 minutes. Once complete, the pellet of cells was re-suspended in 10 mL warmed culture media and the number of cells per mL was determined using a hemocytometer counting chamber. Cell suspensions were then adjusted to 5×10^4 cells/mL for HDFs and 1×10^5 cells/mL for HaCaTs. 100 μL of the cell suspension was added to each well of a sterile, cell-culture-treated 96-well microtiter plate. The plates were incubated in standard culture conditions for 16-24 hours to allow cellular adherence to the culture vessel. […] Culture plates were removed from the incubator, the media removed; and monolayers washed with 100 μL of warmed DPBS. The contents of the test item dilution plates were transferred to the culture plates. […]
(§3) The secretion of lactate dehydrogenase (LDH) enzyme was used for quantitatively measuring cell damage and cytotoxicity. As damage to the cell plasma membrane releases LDH into the cell culture media, the extracellular LDH in the media can be quantified by a coupled enzymatic reaction in which LDH catalyzes the conversion of lactate to pyruvate via NAD+ reduction to NADH. […]
(§4) Following incubation with the selected compounds, 50 μL of media from each well was transferred to the corresponding well of a fresh 96 well culture plate. The presence of Lactate dehydrogenase (LDH) was then quantified using the INVITROGEN™ CyQUANT™ LDH Cytotoxicity Assay, fluorescence kit. Total fluorescence was measured by reading the plates on a plate reader at an excitation of 560 nm and an emission of 590 nm. […]

[8] = tested on: Staphylococcus aureus ATCC 29213; assay: MIC, broth microdilution in MH broth with resazurin; format: cell-based; conditions: for MIC SA29213: Table 17, modified Gompertz fit, only values marked ^ are reliable estimates, others unreliable
[9] = tested on: Klebsiella pneumoniae KL1; assay: as above; format: cell-based; conditions: Table 17; modified Gompertz fit; only values marked ^ are reliable estimates, others unreliable
[10] = tested on: Primary Human Dermal Fibroblast (HDFs); assay: LDH cytotoxicity assay, HDF; format: cell-based; conditions: Table 16, summarized cell toxicity values
Protocol: as §1, §2, §3, §4

[11] = tested on: Staphylococcus aureus ATCC 29213; assay: MBC, spot plating after 24 h in MH broth; conditions: Table 18; —: no activity observed
Protocol: as §5, §6, §7

[12] = tested on: Pseudomonas aeruginosa 27853; assay: MIC, broth microdilution in MH broth with resazurin; format: cell-based; conditions: Table 17; modified Gompertz fit; only values marked ^ are reliable estimates, others unreliable
[13] = tested on: Staphylococcus aureus MR1; assay: as above; format: cell-based; conditions: Table 17; modified Gompertz fit; only values marked ^ are reliable estimates, others unreliable
S. aureus NRS 384 = assay: Mouse Staphylococcus aureus-induced wound infection model, bacteria load in wound site; conditions: 50 μL/wound site
[14] = tested on: all tested bacteria (Gram-positive and Gram-negative); assay: MIC / antimicrobial activity over the whole panel of tested bacteria
[15] = tested on: mammalian cells (HDF and HaCaT); assay: Mammalian cell cytotoxicity (LDH and MTS), both cell populations; format: cell-based, human
Protocol: as §1
Mammalian cell populations were maintained in standard culture conditions at 37° C., 5% CO2 and >95% relative humidity. […] Once complete, the pellet of cells was re-suspended in 10 mL warmed culture media and the number of cells per mL was determined using a hemocytometer counting chamber. […]
as §3

[16] = tested on: Klebsiella pneumoniae KL1; assay: MBC, spot plating after 24 h in MH broth; conditions: Table 18; —: no activity observed
Protocol: as §5
(§8) To determine MBC compound concentrations, breakpoints were estimated from MIC curves. Overnight cultures were set up as described above for all bacterial strains. The following day overnight cultures were adjusted to give a cell density of 5×10^5 cells per mL. Briefly, cultures were adjusted to the McFarland standard (0.08-0.12) and diluted (1:150). Adjusted cultures were inoculated into 96 well plates with 50 μL sterile Muller-Hinton broth (MHB) and 2 concentrations of each compound. […] MBC cultures were quantified by serial dilution in a 96 well plate and spot plating onto Muller-Hinton agar (MHA). MHA plates were incubated at 37° C. for 24 hours and counted. […]

[17] = tested on: Enterococcus faecalis EF51299; assay: MBC, spot plating after 24 h in MH broth; conditions: Table 18; —: no activity observed
Protocol: as §5, §8

[18] = tested on: Staphylococcus aureus NRS384; assay: MIC, broth microdilution in MH broth with resazurin; format: cell-based; conditions: Table 21 (Example 8); Staphylococcus aureus NRS384; read-out: MIC Concentration

SMILES	MBC EF19433 [1]	MBC EC25922 (Escherichia coli EC25922 [2])	MIC EF51299 [3]	MIC EF19433 [4]	MBC MR1 [5]	MIC EC25922 (Escherichia coli EC25922 [6])	Mammalian Cell Cytotoxicity, HaCaT [7]	MIC SA29213 [8]	MIC KL1 [9]	Mammalian Cell Cytotoxicity, HDF [10]	MBC SA29213 [11]	MIC PA27853 [12]	MIC MR1 [13]	also measured
CCCCCCCCCCCCCCCCCC[N+](C)(C)CCOCCO.[Br-] [Compound 39637_105543]	1.57 µM	25 µM	62.65^ μM	3.20^ μM	6.25 µM	42.96 µM	6.3 µM	3.16 µM	+infinity	6.3 µM	1.57 µM	53.54 µM	10.58^ μM	–
CCCCCC[N+](C)(C)CCOCCO.[Br-] [Compound 40598_109448]	–	–	–	Unstable	–	0.83 µM	>100 µM	1.93 µM	48.98 µM	>100 µM	–	0.06 µM	–	–
CCCCCCCCCCCC[N+](C)(C)CCOCCO.[Br-] [Compound 40597_109444]	–	–	27.19^ μM	1.63^ μM	–	–	100 µM	–	0.01 µM	100 µM	–	2.84 µM	0.94 µM	–
CCCCCCCCCCCCCCCCCC[N+](C)(C)CCOCCO.[Br-] [Compound 39637]	–	–	–	–	–	–	–	–	–	–	–	–	–	Ig(CFU/wound site) 24 h p.i. (S. aureus NRS 384; Study I, 100 μM, once a day): 8.49 ± 0.30 Ig(CFU/wound site); ΔIg(CFU/wound site) vs 12 h infection control (S. aureus NRS 384; Study I, 100 μM, once a day): −0.23 ± 0.06 Ig(CFU/wound site); ΔIg(CFU/wound site) vs 24 h infection control (S. aureus NRS 384; Study I, 100 μM, once a day): −0.29 ± 0.30 Ig(CFU/wound site); Ig(CFU/wound site) 12 h p.i. (S. aureus NRS 384; Study I, 100 μM, once a day from 5 min p.i., inoculum 4.20E+06 CFU/wound site): 8.35 ± 0.06 Ig(CFU/wound site); Ig(CFU/wound site) 24 h p.i. (S. aureus NRS 384; Study II, 300 μM, once a day): 8.90 ± 0.10 Ig(CFU/wound site); ΔIg(CFU/wound site) vs 12 h infection control (S. aureus NRS 384; Study II, 300 μM, once a day): −0.45 ± 0.40 Ig(CFU/wound site); ΔIg(CFU/wound site) vs 24 h infection control (S. aureus NRS 384; Study II, 300 μM, once a day): 0.04 ± 0.10 Ig(CFU/wound site); Ig(CFU/wound site) 12 h p.i. (S. aureus NRS 384; Study II, 300 μM, once a day, inoculum 2.50E+06 CFU/wound site): 8.14 ± 0.40 Ig(CFU/wound site); Ig(CFU/wound site) 12 h p.i. (S. aureus NRS 384; Study II, 1000 μM, once a day): 5.44 ± 0.94 Ig(CFU/wound site); Ig(CFU/wound site) 24 h p.i. (S. aureus NRS 384; Study II, 1000 μM, once a day): 5.81 ± 1.79 Ig(CFU/wound site); ΔIg(CFU/wound site) vs 12 h infection control (S. aureus NRS 384; Study II, 1000 μM, once a day): −3.15 ± 0.94 Ig(CFU/wound site); ΔIg(CFU/wound site) vs 24 h infection control (S. aureus NRS 384; Study II, 1000 μM, once a day): −3.06+1.79** Ig(CFU/wound site); antimicrobial activity towards the gram +ve species Enterococcus faecalis and Staphylococcus aureus (in words) [14]: strong antimicrobial activity; concentration with almost total/complete absence of viable cells ([15]; HDF and HaCaT): 6.3 µM; concentration at which LDH secretion began to rapidly exceed control levels ([15]; HDF and HaCaT populations): 3.12 µM
CCCCCCCCCCCCCCCCCC[N+](C)(C)CCOCCO.[Br-] [Compound 39637_109466]	1.57 µM	25 µM	16.81^ μM	2.59^ μM	6.25 µM	59.94 µM	6.3 µM	3.05 µM	2.06 µM	6.3 µM	1.57 µM	62.14^ μM	10.78^ μM	MBC KL1 [16]: 50 µM; MBC EF51299 [17]: 1.57 µM
CC(=O)O[C@H]1C[C@@]2(C)[C@@H](C[C@@H](O)[C@H]3[C@@]4(C)CC[C@@H](O)[C@@H](C)[C@@H]4CC[C@@]32C)/C1=C(\CCC=C(C)C)C(=O)O [fusidic acid]	–	–	–	–	–	–	–	–	–	–	–	–	–	MIC ([3]; Table 21 (Example 8), Enterococcus faecalis EF51299, read-out: MIC Concentration): 5 µM (≈ 2.58 µg/mL); MIC ([4]; Table 21 (Example 8), Enterococcus faecalis EF19433, read-out: MIC Concentration): 5 µM (≈ 2.58 µg/mL); MIC ([8]; ATCC29213, Table 21 (Example 8), Staphylococcus aureus 29213, read-out: MIC Concentration): 0.04 µM (≈ 0.0207 µg/mL); MIC [18]: 0.04 µM (≈ 0.0207 µg/mL)
